How the values were obtained:
Assay type in all cases: in vivo, rat
[1] = tested on: Zucker diabetic fatty rats; assay: Administration of the effective and low doses of compound A in combination (Example 1(a)): blood glucose level, red blood cell count, heart weight; settings: for red blood cell count: FIG. 2; for heart weight: FIG. 3; for blood glucose level (mean) after the decrease to the low dose: oral once a day, from the 14th day on
Description: Zucker diabetic fatty rats (9-week-old, from Charles River Laboratories Japan, Inc.) were used in the experiment. The rats were divided into 4 groups of 5 individuals each so that body weight, blood glucose level, and red blood cell count may each be uniform among the groups, and each of these groups served as a low-dose treatment group (Ia), a low-dose treatment group (Ib), a continuous treatment group, or a control group. Food (FR2, from Funabashi Nojo) and water were given ad libitum during the testing period. A 0.5% carboxymethyl cellulose (CMC) solution only was administered to the control group, and a CMC suspension of compound A was orally administered to all of the other groups, once a day in doses described below. For the low-dose treatment group (Ia), it was administered at 3 mg/kg for 2 weeks and then at a decreased dose of 0.03 mg/kg for a further 3 weeks. For the low-dose treatment group (Ib), it was administered at 3 mg/kg for 2 weeks and then at a decreased dose of 0.3 mg/kg for a further 3 weeks. For the continuous treatment group, 3 mg/kg was administered for 5 weeks. Blood was collected every 7 days from the start of administration using a capillary tube treated with heparin and EDTA, and blood glucose level and blood cell parameters were determined using an autoanalyzer (blood glucose level: Glucoroder GX-T from A&T Corporation), blood cell parameters: KX-21N from Sysmex Corporation).

[2] = tested on: Zucker diabetic fatty rats; assay: Cycle of one week full coverage followed by four weeks of reduced dosage (Example 1(b)); settings: one week full coverage (3 mg/kg) followed by four weeks of reduced dosage (0.3 mg/kg)
[3] = tested on: Zucker diabetic fatty rats; assay: Intermittent administration of compound A (Example 2): blood glucose level, red blood cell count, heart weight; settings: for blood glucose level: FIG. 4; for red blood cell count: FIG. 5; for heart weight: FIG. 6
Description: Zucker diabetic fatty rats (9-week-old, from Charles River Laboratories Japan, Inc.) were used in the experiment. The rats were divided into 3 groups so that body weight, blood glucose level, and red blood cell count may each be uniform among the groups, and each of these groups served as a control group, an intermittent treatment group, or a continuous treatment group (n=4 to 5). Food (FR2, from Funabashi Nojo) and water were given ad libitum during the testing period. A 0.5% carboxymethyl cellulose (CMC) solution only was administered to the control group, and a CMC suspension of compound A was forcibly orally administered to the intermittent treatment group and continuous treatment group according to the regimen described below. For the intermittent treatment group, compound A was repeatedly given in a dose of 1 mg/kg once a day for one week before decreasing the administration thereof to twice a week to administer it for a further two weeks (dosing days: days 0 to 7, 10, 14, and 17). In this respect, the CMC solution was given on the days when compound A was not administered. For the continuous treatment group, 1 mg/kg was repeatedly administered once a day for three weeks. Blood was collected at days 0, 2, 5, 7, 9, 12, 14, 16, 19, and 21 when the start date of dosing was shown as day 0, using a capillary tube treated with heparin, and blood glucose level and blood cell parameters were determined using an autoanalyzer (blood glucose level: Glucoroder GX-T from A&T Corporation, blood cell parameters: KX-21N from Sysmex Corporation)

[4] = continuous treatment group: 3 mg/kg orally once a day for 5 weeks
[5] = low-dose treatment group (Ia): 3 mg/kg for 2 weeks, then 0.03 mg/kg for 3 weeks
[6] = low-dose treatment group (Ib): 3 mg/kg for 2 weeks, then 0.3 mg/kg for 3 weeks
[7] = continuous treatment group: 1 mg/kg orally once a day for three weeks
[8] = intermittent treatment group: 1 mg/kg once a day for one week, then twice a week for two weeks

heart weight [1, 4]: marked increase in heart weight | red blood cell count [1, 5]: recovered nearly to control level | heart weight [3, 7]: marked increase in heart weight | red blood cell count [3, 8]: an increase in red blood cell count
SMILES: COc1ccc2nc(COc3ccc(CC4SC(=O)NC4=O)cc3)n(C)c2c1.Cl (stereo not shown) [compound A, 5-[4-(6-methoxy-1-methyl-1H-benzimidazol-2-ylmethoxy)benzyl]thiazolidin-2,4-dione hydrochloride]
blood glucose level ([1]; continuous treatment group: 3 mg/kg orally once a day for 5 weeks, FIG. 1): lowered to a normal value | red blood cell count [1, 4]: hemodilution (a decrease in red blood count) | blood glucose level (mean) after the decrease to the low dose ([1]; low-dose treatment group (Ia): 3 mg/kg for 2 weeks, then 0.03 mg/kg for 3 weeks, FIG. 1): ≤ 300 mg/dL | heart weight [1, 5]: clearly decreased values compared to that in the continuous treatment group | blood glucose level (mean) after the decrease to the low dose ([1]; low-dose treatment group (Ib): 3 mg/kg for 2 weeks, then 0.3 mg/kg for 3 weeks, FIG. 1): ≤ 300 mg/dL | red blood cell count [1, 6]: rapidly recovered in dose-dependent manner | heart weight [1, 6]: clearly decreased values compared to that in the continuous treatment group | results (blood glucose level, red blood cell count, heart weight) compared with Example 1(a) [2]: Almost the same results to those described above | blood glucose level [3, 7]: lowered to a normal range | red blood cell count [3, 7]: hemodilution (a decrease in red blood cell count) | blood glucose level [3, 8]: nearly the same level as that in the continuous treatment group | heart weight [3, 8]: decreased in value compared to that in the continuous treatment group
